For orientation: solubility means how much of the substance goes into solution per volume.

≈ marks a conversion by molar mass, not a printed value.

For the data set the following is noted: 25 °C.
For the compound `c1ccc2[nH]c(-c3cscn3)nc2c1`, the solubility is 0.248 mM (≈ 50 µg/mL).

Compound `COC(=O)Nc1cccc(OC(=O)Nc2cccc(C)c2)c1` came in with a solubility of 0.0161 mM (≈ 4.85 µg/mL). The value for `CCCSP(=O)(OCC)SCCC` was 3.09 mM (≈ 750 µg/mL). The result for `CC(C)C(Nc1ccc(C(F)(F)F)cc1Cl)C(=O)OC(C#N)c1cccc(Oc2ccccc2)c1` (stereo not drawn) reads 6.29e-06 mM (≈ 0.00316 µg/mL). The result for `CCN(CC)C(=O)SCc1ccc(Cl)cc1` reads 0.109 mM (≈ 28 µg/mL); that for `CC(C)NC(=O)N1CC(=O)N(c2cc(Cl)cc(Cl)c2)C1=O`, 0.0421 mM (≈ 13.9 µg/mL).

As for `CC(C)[C@H](C(=O)OC(C#N)c1cccc(Oc2ccccc2)c1)c1ccc(OC(F)F)cc1` (stereo partly drawn), the solubility was 0.000133 mM (≈ 0.06 µg/mL). The result for `CNC(=O)Oc1ccc(SC)c(C)c1` reads 0.107 mM (≈ 22.5 µg/mL); that for `CC(C)(C)C(=O)C(Oc1ccc(Cl)cc1)n1cncn1` (stereo not drawn), 0.243 mM (≈ 71.5 µg/mL). The result for `Cn1c(=O)on(-c2ccc(Cl)c(Cl)c2)c1=O` reads 0.00575 mM (≈ 1.5 µg/mL). The result for `COC(=O)c1ccccc1CS(=O)(=O)NC(=O)Nc1nc(OC)cc(OC)n1` reads 0.292 mM (≈ 120 µg/mL). Take `COP(=O)(NC(C)=O)SC` (stereo not drawn): the solubility worked out at 4470 mM (≈ 818000 µg/mL).

Compound `O=C1C2CC=CCC2C(=O)N1SC(Cl)(Cl)Cl` (stereo not drawn) returned a solubility of 0.017 mM (≈ 5.1 µg/mL).

The values above are taken from the OPERA property sets (Mansouri et al. 2018).
